For experiment [1], the target named is T1, Human Pit-2 (Homo sapiens, UniProt Q08357).
T1 construct: expressed in transfected cells; host or cells: CHO cells, constitutive expression
T1 sequence (Q08357 1-652): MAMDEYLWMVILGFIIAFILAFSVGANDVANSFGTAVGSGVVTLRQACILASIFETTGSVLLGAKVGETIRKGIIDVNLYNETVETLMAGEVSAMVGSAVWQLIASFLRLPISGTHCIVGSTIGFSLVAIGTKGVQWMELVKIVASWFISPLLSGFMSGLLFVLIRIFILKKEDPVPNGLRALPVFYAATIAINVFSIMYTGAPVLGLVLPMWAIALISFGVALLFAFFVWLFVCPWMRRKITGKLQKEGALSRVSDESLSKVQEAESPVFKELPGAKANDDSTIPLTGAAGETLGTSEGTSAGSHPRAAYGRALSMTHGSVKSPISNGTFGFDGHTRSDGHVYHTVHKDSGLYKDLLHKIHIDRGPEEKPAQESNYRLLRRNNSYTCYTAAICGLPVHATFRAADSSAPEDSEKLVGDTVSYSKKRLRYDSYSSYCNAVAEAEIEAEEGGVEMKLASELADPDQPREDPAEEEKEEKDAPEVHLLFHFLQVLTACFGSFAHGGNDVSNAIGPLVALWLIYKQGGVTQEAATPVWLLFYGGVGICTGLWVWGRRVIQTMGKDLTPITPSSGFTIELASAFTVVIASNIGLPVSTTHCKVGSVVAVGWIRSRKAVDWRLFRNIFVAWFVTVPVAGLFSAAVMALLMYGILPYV
As to the kind of experiment: Pit-2 activity assay (33P phosphate uptake in CHO cells). In kind it is cell-based. As to conditions: n=1. On the procedure:
Generation of constitutive human Pit-2 and SGLT1 overexpressing CHO cells and activity assays measuring the uptake of ^33P phosphate for 45 minutes at 20°C for Pit-2 and ^14C-α-methyl-D-glucopyranoside for 120 minutes at 37°C for SGLT1, were also described previously.

Experiment [2] concerns acute phosphate uptake into plasma. As to the kind of experiment: Acute radiolabeled phosphate uptake into plasma in mice. In kind it is in vivo. On the procedure: A dosing solution for a 10 mg/kg dose of LY3304000 using a 10 mL/kg dosing volume was made in 1% HEC vehicle. The subsequent dosing solutions for 3, 1, 0.3, 0.1, 0.03, 0.01, 0.003, and 0.001 mg/kg were prepared by serial dilutions with HEC. A Radiolabeled Phosphate Dosing Solution was made in a 16.25 mM Na2HPO4, 0.9% saline, pH 7.4, solution with the addition of about 2.5 μCi/mL radioactive phosphate (H3^33PO4, PerkinElmer) and filtered before dosing. Following 12-hour fasting with access to water, male SD rats were orally dosed at 10 mL/kg with either vehicle or varying doses of LY3304000. Fifteen minutes later, 2 mL of the Radiolabeled Phosphate Dosing Solution was dosed by oral gavage. This dose of phosphate was chosen because it approximates the rat equivalent to the amount of bioavailable phosphate in a human meal, 4 mg/kg phosphorus, or 320 mg phosphorus for an 80 kg person on a phosphate restricted diet. Fifteen minutes later, blood was collected by cardiac stick, and plasma was prepared. Radioactivity (dpm) in 50 μL plasma was measured by scintillation counting. To determine the total radioactivity dosed to each rat, the radioactivity in two 10-μL samples of the Radiolabeled Phosphate Dosing Solution was measured by scintillation counting. To calculate the total radioactivity recovered in plasma, it was assumed that total blood volume constitutes about 60% of the body weight and plasma constitutes about 55% of the total blood. The mole amount of phosphate uptake was calculated as the percentage of administered radiolabeled phosphate recovered in the plasma of vehicle or LY3304000 treated rats multiplied by total phosphate amount in the radiolabeled phosphate dosing solution. ED50 values were then determined with a 4-parameter logistic curve fitting model using GraphPad Prism. A 15-minute time point, post phosphate dosing, was chosen for collecting blood in the acute phosphate uptake studies in rats and mice (see below) to capture the initial rate of phosphate absorption. We wanted to avoid measurements at longer time points when plasma radiolabeled phosphate appears to be at a steady state. LY3304000 dosing solution and Radioactive Phosphate Dosing Solution were made as described above. Following 12-hour fasting with access to water, male C57Bl/6 mice were dosed orally at 10 mL/kg with either vehicle or varying doses of LY3304000. Fifteen minutes later, 200 μL of the Radiolabeled Phosphate Dosing Solution was dosed by oral gavage. Fifteen minutes later, blood was collected by cardiac stick, and plasma was prepared. The measurement of acute phosphate uptake was determined as described above for rats.

Experiment [3] deals with T2, NHE3.
T2 construct: from tissue; host or cells: intestine of living C57Bl/6 mice
The experiment can be described thus: Sodium excretion in urine after oral NaH2PO4 bolus in mice. In kind it is in vivo. As to conditions: sodium bolus plus 3 mg/kg po, urine 4 h, mean ± SEM. On the procedure:
The effect of LY3304000 on sodium and phosphate excretion in urine was also assessed in mice. A dosing solution of 3 mg/kg LY3304000 for a 10 mL/kg dose volume was formulated in 1% HEC. An NaH2PO4 dosing solution at a 690 mg/kg with a […] dosing volume was made in sterile water. Male C57Bl/6 mice were fasted for 4 hours with access to water and then orally dosed at 10 mL/kg with 1% HEC vehicle or 3 mg/kg LY3304000. Fifteen minutes later, mice were orally dosed with either sterile water or NaH2PO4 solution, and then immediately transferred to a mouse holder on a 96-well plate for spot urine collection. Urine samples were collected for 4 hours post sterile water or NaH2PO4 dose. Urinary sodium, creatinine, and phosphorus (as a measure of phosphate) were determined using a clinical biochemistry analyzer. The urinary sodium-to-creatinine ratio was calculated and compared between vehicle and LY3304000 treated groups.

Structures are written as SMILES.

For orientation: IC50 means the concentration that inhibits the measured activity by half. Usually ED50 stands for the dose at which the effect has come halfway, by size or by number of responders. Compound `CN1Cc2c(Cl)cc(Cl)cc2[C@H](c2cccc(S(=O)(=O)NCCOCCOCCN/C(=N\C(N)=O)NCCCCN/C(=N/C(N)=O)NCCOCCOCCNS(=O)(=O)c3cccc([C@@H]4CN(C)Cc5c(Cl)cc(Cl)cc54)c3)c2)C1.Cl.Cl` [LY3304000, (Z)-[[4-[[(Z)-N’-carbamoyl-N-[2-[2-[2-[[3-[(4S)-6,8-dichloro-2-methyl-3,4-dihydro-1H-isoquinolin-4-yl]phenyl]sulfonylamino]ethoxy]ethoxy]ethyl]carbamimidoyl]amino]butylamino]-[2-[2-[2-[[3-[(4S)-6,8-dichloro-2-methyl-3,4-dihydro-1H-isoquinolin-4-yl]phenyl]sulfonylamino]ethoxy]ethoxy]ethylamino]methylene]urea dihydrochloride] had an IC50 in experiment [1] above 100 µM. In addition, the ED50 in experiment [2] (Mus musculus, po, 0.25 h, oral, plasma 15 min post 33P phosphate, read-out: ED50 (increase of phosphate uptake)) was found to be 0.48 mg/kg. For the same compound, the “Emax, Pi uptake” value in experiment [2] (curve fit) amounted to 80.01 nmol. Besides, in experiment [2] (highest doses tested, vehicle 39 nmoles), the “radiolabeled phosphate recovered in plasma” value stood at 78 nmol. Further, the “ED50 (increase of phosphate uptake)” value in experiment [2] (oral, plasma 15 min post 33P phosphate) is 0.479 mg/kg. For the same compound, the Urinary sodium-to-creatinine ratio in experiment [3] came to 14.6 ± 1.7 mg/mg.
